Reference: ChEMBL document CHEMBL1152404, “Structure-Activity Relationship of novel phenylacetic CXCR1 inhibitors” (Bioorg Med Chem Lett, 2009)

Assays:
[1] = Cytotoxicity against of human polymorphonuclear leukocytes assessed as cell viability by trypan blue dye exclusion assay; set-up: concentration or dose not given beside the values; settings: read-out: Activity
[2] = Cytotoxicity against mouse L1.2 cells assessed as cell viability by trypan blue dye exclusion assay; assay type: cell-based; set-up: concentration or dose not given beside the values; settings: read-out: Activity

Structure (SMILES): O=C(O)Cc1ccccc1Oc1ccccc1F
- viability [1]: > 95%
- viability [2]: > 95%

Structure (SMILES): CC(C)Cc1ccc([C@@H](C)C(=O)O)cc1 [(R)-IBUPROPHEN]
- viability [1]: > 95%
- viability [2]: > 95%

Structure (SMILES): O=C(O)Cc1ccccc1Nc1ccccc1
- viability [1]: > 95%
- viability [2]: > 95%

Structure (SMILES): CC(C(=O)NS(C)(=O)=O)c1ccccc1Nc1c(Cl)cccc1Cl (configuration not stated)
- viability [1]: > 95%
- viability [2]: > 95%

Structure (SMILES): Cc1ccccc1Nc1ccccc1CC(=O)O
- viability [1]: > 95%
- viability [2]: > 95%

Structure (SMILES): CC(C(=O)NCCO)c1ccccc1Nc1c(Cl)cccc1Cl (configuration not stated)
- viability [1]: > 95%
- viability [2]: > 95%

Structure (SMILES): COc1ccc2c(c1)c(CC(=O)O)c(C)n2C(=O)c1ccc(Cl)cc1 [INDOMETHACIN]
- viability [1]: > 95%
- viability [2]: > 95%

Structure (SMILES): O=C(O)Cc1ccccc1Nc1c(F)cccc1F
- viability [1]: > 95%
- viability [2]: > 95%

Structure (SMILES): O=C(O)Cc1ccccc1Nc1cc(Cl)ccc1Cl
- viability [1]: > 95%
- viability [2]: > 95%

Structure (SMILES): O=C(O)Cc1ccccc1Oc1ccccc1
- viability [1]: > 95%
- viability [2]: > 95%

Structure (SMILES): CC(C(=O)O)c1ccccc1Nc1c(Cl)cccc1Cl (configuration not stated)
- viability [1]: > 95%
- viability [2]: > 95%

Structure (SMILES): CC(C(=O)NCCCN(C)C)c1ccccc1Nc1c(Cl)cccc1Cl (configuration not stated)
- viability [1]: > 95%
- viability [2]: > 95%

Structure (SMILES): CC(C(=O)NC(C)(C)C)c1ccccc1Nc1c(Cl)cccc1Cl (configuration not stated)
- viability [1]: > 95%
- viability [2]: > 95%

Structure (SMILES): O=C(O)Cc1ccccc1Cc1c(Cl)cccc1Cl
- viability [1]: > 95%
- viability [2]: > 95%

Structure (SMILES): Cc1cccc(C)c1NC(=O)C(C)c1ccccc1Nc1c(Cl)cccc1Cl (configuration not stated)
- viability [1]: > 95%
- viability [2]: > 95%

Structure (SMILES): O=C(O)Cc1cccc(C(=O)c2ccccc2)c1
- viability [1]: > 95%
- viability [2]: > 95%

Structure (SMILES): Cc1ccc(Cl)c(Nc2ccccc2CC(=O)O)c1Cl
- viability [1]: > 95%
- viability [2]: > 95%

Structure (SMILES): Cc1ccc(C(=O)c2ccc(CC(=O)O)n2C)cc1 [TOLMETIN]
- viability [1]: > 95%
- viability [2]: > 95%

Structure (SMILES): CC(C)Cc1ccc(CC(=O)O)cc1 [IBUFENAC]
- viability [1]: > 95%
- viability [2]: > 95%

Structure (SMILES): O=C(O)Cc1ccccc1Nc1c(Cl)cccc1Cl [DICLOFENAC]
- viability [1]: > 95%
- viability [2]: > 95%

Structure (SMILES): CC(C(=O)NCCC[N+](C)(C)C)c1ccccc1Nc1c(Cl)cccc1Cl (configuration not stated)
- viability [1]: > 95%
- viability [2]: > 95%

Structure (SMILES): O=C(O)Cc1ccccc1Nc1ccccc1Cl
- viability [1]: > 95%
- viability [2]: > 95%

Structure (SMILES): CC(C(N)=O)c1ccccc1Nc1c(Cl)cccc1Cl (configuration not stated)
- viability [1]: > 95%
- viability [2]: > 95%

Structure (SMILES): O=C(O)Cc1ccccc1Oc1ccccc1Cl
- viability [1]: > 95%
- viability [2]: > 95%

Structure (SMILES): O=C(O)Cc1ccccc1Nc1ccccc1F
- viability [1]: > 95%
- viability [2]: > 95%

Structure (SMILES): CS(=O)(=O)NC(=O)Cc1ccccc1Oc1ccccc1F
- viability [1]: > 95%
- viability [2]: > 95%
